# Measured values published in PubChem BioAssay (NCI).
#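 1) Cells in 96-well plates. 2) Compound, 48 h, 5 concentrations. 3) Linear interpolation between surrounding doses. 4) Unreached endpoint = highest concentration. At the TGI there is no net growth.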
# Tests used:
# Assay in all cases: NCI tumour cell line growth inhibition, 48 h
# NCI-H23 lung = tested on: NCI-H23 lung
# RPMI-8226 leukemia = tested on: RPMI-8226 leukemia
# SK-MEL-5 melanoma = tested on: SK-MEL-5 melanoma
# NCI/ADR-RES ovarian = tested on: NCI/ADR-RES ovarian
# SF-539 CNS = tested on: SF-539 CNS
# SNB-75 CNS = tested on: SNB-75 CNS
# MALME-3M melanoma = tested on: MALME-3M melanoma
# EKVX NSCLC = tested on: EKVX NSCLC
# HOP-62 NSCLC = tested on: HOP-62 NSCLC
# OVCAR-5 ovarian = tested on: OVCAR-5 ovarian
# UACC-62 melanoma = tested on: UACC-62 melanoma
# HCT-15 colon = tested on: HCT-15 colon
# M14 melanoma = tested on: M14 melanoma
# NCI-H226 lung = tested on: NCI-H226 lung
# NCI-H460 lung = tested on: NCI-H460 lung
# OVCAR-8 ovarian = tested on: OVCAR-8 ovarian
# MDA-MB-435 = tested on: MDA-MB-435
# MDA-MB-231 breast = tested on: MDA-MB-231 breast
# HS 578T breast = tested on: HS 578T breast
# MDA-N = tested on: MDA-N
# SK-OV-3 ovarian = tested on: SK-OV-3 ovarian
# UO-31 renal = tested on: UO-31 renal
# 786-0 renal = tested on: 786-0 renal
# SK-MEL-2 melanoma = tested on: SK-MEL-2 melanoma
# HCT-116 colon = tested on: HCT-116 colon
# NCI-H522 lung = tested on: NCI-H522 lung
# SK-MEL-28 melanoma = tested on: SK-MEL-28 melanoma
# TK-10 renal = tested on: TK-10 renal
# SF-295 CNS = tested on: SF-295 CNS
# KM12 colon = tested on: KM12 colon
# MOLT-4 leukemia = tested on: MOLT-4 leukemia
# HT29 colon = tested on: HT29 colon
# MCF7 breast = tested on: MCF7 breast
# A549 NSCLC = tested on: A549 NSCLC
# HCC-2998 colon = tested on: HCC-2998 colon
# RXF 393 renal = tested on: RXF 393 renal
# K-562 leukemia = tested on: K-562 leukemia
# U251 CNS = tested on: U251 CNS
# OVCAR-3 ovarian = tested on: OVCAR-3 ovarian
# BT-549 breast = tested on: BT-549 breast
# COLO 205 colon = tested on: COLO 205 colon
# A498 renal = tested on: A498 renal
# CCRF-CEM leukemia = tested on: CCRF-CEM leukemia
# SNB-19 CNS = tested on: SNB-19 CNS
# CAKI-1 renal = tested on: CAKI-1 renal
# UACC-257 melanoma = tested on: UACC-257 melanoma
# IGROV1 ovarian = tested on: IGROV1 ovarian
# SF-268 CNS = tested on: SF-268 CNS
# SW-620 colon = tested on: SW-620 colon
# DU-145 prostate = tested on: DU-145 prostate
# HL-60(TB) leukemia = tested on: HL-60(TB) leukemia
# PC-3 prostate = tested on: PC-3 prostate
# ACHN renal = tested on: ACHN renal
# LOX IMVI melanoma = tested on: LOX IMVI melanoma
# HOP-92 NSCLC = tested on: HOP-92 NSCLC
# OVCAR-4 ovarian = tested on: OVCAR-4 ovarian
# SN12C renal = tested on: SN12C renal
smiles,measurement,setting,value
Clc1ccc(-c2nc3ccc4ccccc4c3c3c2CCCC3)cc1,TGI,NCI-H23 lung,> 100 µM
same,TGI,RPMI-8226 leukemia,> 100 µM
same,TGI,SK-MEL-5 melanoma,> 100 µM
same,TGI,NCI/ADR-RES ovarian,> 100 µM
same,TGI,SF-539 CNS,> 100 µM
same,TGI,SNB-75 CNS,> 100 µM
same,TGI,MALME-3M melanoma,> 100 µM
same,TGI,EKVX NSCLC,> 100 µM
same,TGI,HOP-62 NSCLC,> 100 µM
same,TGI,OVCAR-5 ovarian,> 100 µM
same,TGI,UACC-62 melanoma,> 100 µM
same,TGI,HCT-15 colon,> 100 µM
same,TGI,M14 melanoma,> 100 µM
same,TGI,NCI-H226 lung,> 100 µM
same,TGI,NCI-H460 lung,> 100 µM
same,TGI,OVCAR-8 ovarian,> 100 µM
same,TGI,MDA-MB-435,> 100 µM
same,TGI,MDA-MB-231 breast,> 100 µM
same,TGI,HS 578T breast,> 100 µM
same,TGI,MDA-N,> 100 µM
same,TGI,SK-OV-3 ovarian,> 100 µM
same,TGI,UO-31 renal,> 100 µM
same,TGI,786-0 renal,> 100 µM
same,TGI,SK-MEL-2 melanoma,> 100 µM
same,TGI,HCT-116 colon,> 100 µM
same,TGI,NCI-H522 lung,> 100 µM
same,TGI,SK-MEL-28 melanoma,> 100 µM
same,TGI,TK-10 renal,> 100 µM
same,TGI,SF-295 CNS,> 100 µM
same,TGI,KM12 colon,> 100 µM
same,TGI,MOLT-4 leukemia,> 100 µM
same,TGI,HT29 colon,> 100 µM
same,TGI,MCF7 breast,> 100 µM
same,TGI,A549 NSCLC,> 100 µM
same,TGI,HCC-2998 colon,> 100 µM
same,TGI,RXF 393 renal,> 100 µM
same,TGI,K-562 leukemia,> 100 µM
same,TGI,U251 CNS,> 100 µM
same,TGI,OVCAR-3 ovarian,> 100 µM
same,TGI,BT-549 breast,> 100 µM
same,TGI,COLO 205 colon,> 100 µM
same,TGI,A498 renal,> 100 µM
same,TGI,CCRF-CEM leukemia,> 100 µM
same,TGI,SNB-19 CNS,> 100 µM
same,TGI,CAKI-1 renal,> 100 µM
same,TGI,UACC-257 melanoma,> 100 µM
same,TGI,IGROV1 ovarian,> 100 µM
same,TGI,SF-268 CNS,> 100 µM
same,TGI,SW-620 colon,> 100 µM
same,TGI,DU-145 prostate,> 100 µM
Cc1cc(-c2cscn2)c(O)c([N+](=O)[O-])c1,TGI,NCI-H23 lung,> 100 µM
same,TGI,RPMI-8226 leukemia,> 100 µM
same,TGI,SK-MEL-5 melanoma,> 100 µM
same,TGI,HL-60(TB) leukemia,> 100 µM
same,TGI,NCI/ADR-RES ovarian,> 100 µM
same,TGI,SF-539 CNS,> 100 µM
same,TGI,MALME-3M melanoma,> 100 µM
same,TGI,EKVX NSCLC,> 100 µM
same,TGI,HOP-62 NSCLC,> 100 µM
same,TGI,OVCAR-5 ovarian,> 100 µM
same,TGI,UACC-62 melanoma,> 100 µM
same,TGI,HCT-15 colon,> 100 µM
same,TGI,M14 melanoma,> 100 µM
same,TGI,NCI-H460 lung,> 100 µM
same,TGI,OVCAR-8 ovarian,> 100 µM
same,TGI,MDA-MB-435,> 100 µM
same,TGI,HS 578T breast,> 100 µM
same,TGI,MDA-N,> 100 µM
same,TGI,SK-OV-3 ovarian,96 µM
same,TGI,UO-31 renal,> 100 µM
same,TGI,786-0 renal,> 100 µM
same,TGI,SK-MEL-2 melanoma,> 100 µM
same,TGI,PC-3 prostate,> 100 µM
same,TGI,HCT-116 colon,> 100 µM
same,TGI,ACHN renal,> 100 µM
same,TGI,TK-10 renal,> 100 µM
same,TGI,SF-295 CNS,> 100 µM
same,TGI,LOX IMVI melanoma,> 100 µM
same,TGI,HT29 colon,> 100 µM
same,TGI,MCF7 breast,> 100 µM
same,TGI,A549 NSCLC,> 100 µM
same,TGI,HCC-2998 colon,> 100 µM
same,TGI,K-562 leukemia,> 100 µM
same,TGI,HOP-92 NSCLC,> 100 µM
same,TGI,OVCAR-4 ovarian,> 100 µM
same,TGI,BT-549 breast,> 100 µM
same,TGI,SN12C renal,> 100 µM
same,TGI,COLO 205 colon,> 100 µM
same,TGI,A498 renal,99.7 µM
same,TGI,CCRF-CEM leukemia,> 100 µM
same,TGI,SNB-19 CNS,> 100 µM
same,TGI,CAKI-1 renal,> 100 µM
same,TGI,UACC-257 melanoma,> 100 µM
same,TGI,IGROV1 ovarian,> 100 µM
same,TGI,SW-620 colon,> 100 µM
